Data published in US20220242905A1, “MODIFIED PEPTIDES AND THEIR USE” (UNIVERSITE DE MONTPELLIER, priority 2018, published 2022).
Converted amounts (≈) assume the structure as drawn.

Experiments:
Hemolytic activity = format: cell-based, Human; conditions: human, human red blood cell suspension; hRBCs, 1 h at 37° C.; read-out: HD50, dose required to lyse 50% of the red blood cells
Experimental: Procedure for measurements of hemolytic activity: Human red blood cells (hRBCs) were washed multiple times with phosphate-buffered saline (PBS) until a clear supernatant was obtained. The hRBCs suspension was made in PBS with a Packed Cell Volume of 5%, Two-fold serial dilutions (50 μL) of oligomers in sterile water (pH adjusted between 7.4 and 7.7 with HCl and NaOH solutions) were mixed with hRBCs suspension (50 μL) in clear polystyrene optical-bottom 96-well plates which were filmed and incubated for 1 h at 37° C. A 1/1 vv hRBCs solution/PBS mixture was used a negative control and a 1/1 vv hRBCs solution/1% (TRIS 50 mM pH=8.0+1% SDS) mixture was used a positive control for 100% hemolysis. The mixture was then centrifuged at 1500 g for 10 min at 5° C. Next, 50 μL of the supernatant was transferred into a second plate, and the absorbance was read at 490 nm using a BioRad iMark plate reader. The hemolysis percentage was calculated by the formula % hemolysis=[Absorbance (sample)−Absorbance (negative control)]/[Absorbance (positive control)−Absorbance (negative control)]×100%. Each assay was performed in a double duplicate. Hemolytic activity was determined or estimated with the Hemolytic Concentration leading to 50% of lysis of hRBCs (HC50).

[1] = test system: Staphylococcus aureus ATCC6538; format: cell-based; conditions: for Minimal inhibitory concentration (MIC) S. aureus ATCC6538: ATCC6538, 24 h; for Minimal bactericidal concentration (MBC) S. aureus ATCC6538: value in bracket, 24 h at 37° C.
Experimental: (§1) Minimal inhibitory concentration (MIC) values and minimal bactericidal concentration (MBCs) values for ATC-peptides 1-9 were determined against both Gram-positive (Bacillus subtilis, Staphylococcus aureus, Enterococcus faecalis) and Gram negative (Escherichia coli, Pseudomonas aeruginosa) bacteria as well as a yeast (Candida albicans). Experiments were conducted in triplicate. For B. subtilis, compounds were tested against vegetative cells and spores, which are particularly resistant to the action of antimicrobial agents. MIC and MBCs values are shown Table 12. In addition, haemolytic properties of 1-9 were tested.
(§2) the antimicrobial performances of oligomers antimicrobial activity were determined on three Gram positive strains (Bacillus subtilis ATCC6633, Staphylococcus aureus ATCC6538 and Enterococcus faecalis ATCC29121), two Gram negative strains (Escherichia coli ATCC8739 and Pseudomonas aeruginosa ATCC9027) and one fungal strain (Candida albicans ATCC10231). Each bacterial strain was allowed to grow overnight on Trypto-Caseine-Soja agar (TSA, Difco) at 37° C., C. albicans was allowed to grow 48 h on a sabouraud medium (Difco) at 20-25° C. A fresh suspension at 10^8 CFU·mL^−1 was then prepared by inoculating the micro-organisms in a Tryptone-Sel solution. Concentration was monitored by measuring transmitted light at 620 nm or with the Mac Farland turbidity standard (Mac Farland=0.5≈10^8 CFU·mL^−1). Each suspension was then diluted in a doubly strong Mueller-Hinton (MH, Difco) broth to […]. Two-fold serial dilutions (100 μL) of oligomers in sterile water (pH adjusted between 7.4 and 7.7 with HCl and NaOH solutions) were mixed with microbial inoculum (100 μL) in NUNC sterile clear polystyrene flat-bottom 96-well plates. A 1/1 v/v oligomer solution/water mixture was used a negative control and a 1/1 vv water/microbial inoculum mixture was used a positive control. Plates were then incubated 24 h at 37° C. for bacteria and 48 h at 25° C. for C. albicans. Minimum Inhibitory Concentration (MIC) was determined as the lowest concentration inhibiting the growth of each micro-organism. […] Minimum Bactericidal Concentration (MBC) was determined as the lowest concentration that prevent the growth of more than one colony. Each assay was performed in a triple duplicate for each strain.

[2] = test system: Candida albicans ATCC10231; format: cell-based; conditions: for Minimal inhibitory concentration (MIC) C. albicans ATCC10231: ATCC10231, 48 h; for Minimal bactericidal concentration (MBC) C. albicans ATCC10231: value in bracket, 48 h at 25° C.
Experimental: as §1, §2

[3] = test system: Pseudomonas aeruginosa ATCC9027; format: cell-based; conditions: for Minimal inhibitory concentration (MIC) P. aeruginosa ATCC9027: ATCC9027, 24 h; for Minimal bactericidal concentration (MBC) P. aeruginosa ATCC9027: value in bracket, 24 h at 37° C.
Experimental: as §1, §2

[4] = test system: Escherichia coli ATCC8739; format: cell-based; conditions: for Minimal inhibitory concentration (MIC) E. coli ATCC8739: ATCC8739, 24 h; for Minimal bactericidal concentration (MBC) E. coli ATCC8739: value in bracket, 24 h at 37° C.
Experimental: as §1, §2

[5] = test system: Bacillus subtilis ATCC6633; format: cell-based; conditions: for Minimal inhibitory concentration (MIC) B. subtilis ATCC6633: ATCC6633, 24 h; for Minimal bactericidal concentration (MBC) B. subtilis ATCC6633: value in bracket, 24 h at 37° C.
Experimental: as §1, §2

[6] = test system: Enterococcus faecalis ATCC29121; format: cell-based; conditions: for Minimal inhibitory concentration (MIC) E. faecalis ATCC29121: ATCC29121, 24 h; for Minimal bactericidal concentration (MBC) E. faecalis ATCC29121: value in bracket, 24 h at 37° C.
Experimental: as §1, §2

| SMILES | HC50 at 1 h (Hemolytic activity) [µM] | Minimal inhibitory concentration (MIC) S. aureus ATCC6538 [1] [µM] | Minimal inhibitory concentration (MIC) C. albicans ATCC10231 [2] [µM] | Minimal inhibitory concentration (MIC) P. aeruginosa ATCC9027 [3] [µM] | Minimal inhibitory concentration (MIC) E. coli ATCC8739 [4] [µM] | Minimal inhibitory concentration (MIC) B. subtilis ATCC6633 [5] [µM] | Minimal inhibitory concentration (MIC) E. faecalis ATCC29121 [6] [µM] | Minimal bactericidal concentration (MBC) S. aureus ATCC6538 [1] | Minimal bactericidal concentration (MBC) C. albicans ATCC10231 [2] | Minimal bactericidal concentration (MBC) P. aeruginosa ATCC9027 [3] | Minimal bactericidal concentration (MBC) E. coli ATCC8739 [4] | Minimal bactericidal concentration (MBC) B. subtilis ATCC6633 [5] | Minimal bactericidal concentration (MBC) E. faecalis ATCC29121 [6] |
| --- | --- | --- | --- | --- | --- | --- | --- | --- | --- | --- | --- | --- | --- |
| CC(=O)N[C@@H](CCCCN)c1nc(C)sc1C(=O)N[C@@H](C)c1nc(CCCCN)sc1C(=O)N[C@@H](C)c1nc(C)sc1C(N)=O [Oligomer 1] | > 100 | >150 | >150 | >150 | >150 | >150 | >150 |  |  |  |  |  |  |
| CC(=O)N[C@@H](CCCCN)c1nc(C)sc1C(=O)N[C@@H](C)c1nc(CCCCN)sc1C(=O)N[C@@H](C)c1nc(C)sc1C(=O)N[C@@H](CCCCN)c1nc(C)sc1C(=O)N[C@@H](C)c1nc(CCCCN)sc1C(=O)N[C@@H](C)c1nc(C)sc1C(N)=O [Oligomer 2] | > 100 | >150 | 62.5 (≈ 81 µg/mL) | >150 | >150 | 30 (≈ 38.9 µg/mL) | >150 |  |  |  |  |  |  |
| CC(=O)N[C@@H](CCCCN)c1nc(C)sc1C(=O)N[C@@H](C)c1nc(CCCCN)sc1C(=O)N[C@@H](C)c1nc(C)sc1C(=O)N[C@@H](CCCCN)c1nc(C)sc1C(=O)N[C@@H](C)c1nc(CCCCN)sc1C(=O)N[C@@H](C)c1nc(C)sc1C(=O)N[C@@H](CCCCN)c1nc(C)sc1C(=O)N[C@@H](C)c1nc(CCCCN)sc1C(=O)N[C@@H](C)c1nc(C)sc1C(N)=O [Oligomer 3] | > 100 | >150 | 10.4 (≈ 19.9 µg/mL) | 42 (≈ 80.5 µg/mL) | 5.2 (≈ 9.96 µg/mL) | 0.8 (≈ 1.53 µg/mL) | >150 | (>150) μM | (10.4) μM | (83) μM | (7.3) μM | (0.8) μM | (>150) μM |
| CC(=O)N[C@@H](CCCCN)c1nc(C)sc1C(=O)N[C@@H](C)c1nc(CCCCN)sc1C(=O)N[C@@H](C)c1nc(C)sc1C(=O)N[C@@H](CCCCN)c1nc(C)sc1C(=O)N[C@@H](C)c1nc(CCCCN)sc1C(=O)N[C@@H](C)c1nc(C)sc1C(=O)N[C@@H](CCCCN)c1nc(C)sc1C(=O)N[C@@H](C)c1nc(CCCCN)sc1C(=O)N[C@@H](C)c1nc(C)sc1C(=O)N[C@@H](CCCCN)c1nc(C)sc1C(=O)N[C@@H](C)c1nc(CCCCN)sc1C(=O)N[C@@H](C)c1nc(C)sc1C(N)=O [Oligomer 4] | > 100 | 26 (≈ 65.9 µg/mL) | 3.7 (≈ 9.38 µg/mL) | 3.9 (≈ 9.88 µg/mL) | 1.6 (≈ 4.06 µg/mL) | 0.5 (≈ 1.27 µg/mL) | >150 | (57) μM | (3.7) μM | (5.2) μM | (1.6) μM | (0.5) μM | (>150) μM |
| CC(=O)N[C@@H](CCCCN)c1nc(C)sc1C(=O)N[C@@H](CC(C)C)c1nc(CCCCN)sc1C(=O)N[C@@H](C)c1nc(CC(C)C)sc1C(=O)N[C@@H](CCCCN)c1nc(C)sc1C(=O)N[C@@H](CC(C)C)c1nc(CCCCN)sc1C(=O)N[C@@H](C)c1nc(CC(C)C)sc1C(=O)N[C@@H](CCCCN)c1nc(C)sc1C(=O)N[C@@H](CC(C)C)c1nc(CCCCN)sc1C(=O)N[C@@H](C)c1nc(CC(C)C)sc1C(N)=O [Oligomer 6] | 23 | 5.2 (≈ 11.3 µg/mL) | 6.2 (≈ 13.4 µg/mL) | 6.2 (≈ 13.4 µg/mL) | 8.3 (≈ 18 µg/mL) | 1.3 (≈ 2.82 µg/mL) | 6.2 (≈ 13.4 µg/mL) | (5.2) μM | (6.2) μM | (6.2) μM | (8.3) μM |  | (6.2) μM |
| CC(=O)N[C@@H](CCCCN)c1nc(C)sc1C(=O)N[C@@H](CC(C)C)c1nc(CCCCN)sc1C(=O)N[C@@H](C)c1nc(CC(C)C)sc1C(=O)N[C@@H](CCCCN)c1nc(C)sc1C(=O)N[C@@H](CC(C)C)c1nc(CCCCN)sc1C(=O)N[C@@H](C)c1nc(CC(C)C)sc1C(=O)N[C@@H](CCCCN)c1nc(C)sc1C(=O)N[C@@H](CC(C)C)c1nc(CCCCN)sc1C(=O)N[C@@H](C)c1nc(CC(C)C)sc1C(=O)N[C@@H](CCCCN)c1nc(C)sc1C(=O)N[C@@H](CC(C)C)c1nc(CCCCN)sc1C(=O)N[C@@H](C)c1nc(CC(C)C)sc1C(N)=O [Oligomer 7] | > 100 | 16.7 (≈ 47.9 µg/mL) | 25 (≈ 71.8 µg/mL) | 14.6 (≈ 41.9 µg/mL) | 14.6 (≈ 41.9 µg/mL) | 4.2 (≈ 12.1 µg/mL) | 10.4 (≈ 29.9 µg/mL) | (25) μM | (25) μM | (19) μM | (16.5) μM | (6.2) μM | (12.5) μM |
| CC(=O)N[C@@H](CCCNC(=N)N)c1nc(C)sc1C(=O)N[C@@H](C)c1nc(CCCNC(=N)N)sc1C(=O)N[C@@H](C)c1nc(C)sc1C(=O)N[C@@H](CCCNC(=N)N)c1nc(C)sc1C(=O)N[C@@H](C)c1nc(CCCNC(=N)N)sc1C(=O)N[C@@H](C)c1nc(C)sc1C(=O)N[C@@H](CCCNC(=N)N)c1nc(C)sc1C(=O)N[C@@H](C)c1nc(CCCNC(=N)N)sc1C(=O)N[C@@H](C)c1nc(C)sc1C(N)=O [Oligomer 8] | > 100 | 14.6 (≈ 30.4 µg/mL) | 9.4 (≈ 19.6 µg/mL) | 54 (≈ 113 µg/mL) | 0.8 (≈ 1.67 µg/mL) | 0.5 (≈ 1.04 µg/mL) | 100 (≈ 208 µg/mL) | (16.5) μM | (12.5) μM | (100) μM | (0.8) μM | (0.5) μM | (>100) μM |
